Paper PMC7271289, “Anti-Inflammatory and Anticoagulant Activities of Synthesized NSAID Prodrug Esters” (Scientifica, 2020)
Read-outs that look alike come from different tables or passages of the source.

What was measured:
[1] = tested on: platelet poor citrated plasma; experiment: Prothrombin time (PT) test; type: biochemical, human; conditions: drug sample 3000 mg/L; for PT Average ± SD: average of three volunteers; for PT: equal volume with plasma, 5 min at 37°C
Method: (§1) PT and aPTT tests were carried out simultaneously. Blood samples from three healthy volunteers were collected in sodium citrated blood tubes (Vacutainer, BD). Blood samples were then centrifuged for 15 min at 1500 rpm to prepare platelet poor citrated plasma. The LABiTec (Germany) apparatus was used for the determination of PT and aPTT. Equal volumes of drug samples (3000 mg/L) and platelet-depleted plasma were incubated for 5 min at 37°C. The PT test was performed as follows: a 100 μl of tissue thromboplastin (HUMAN) was added to 50 μl of prewarmed mixture, and clotting time was measured. For the aPTT test, 50 μl of rabbit brain extract was added to equal volume of the prewarmed platelet poor plasma-extract mixture incubated for 1 minute after which 50 μl of 0.025 M calcium chloride (HUMAN) was added and clotting time was measured; PBS was used as control.

COX2 [2] = biological target: T1, COX2 (Homo sapiens, UniProt P35354); experiment: biochemical
T1 construct: purchased Cayman Chemical, USA 560131
T1 sequence (P35354 18-604): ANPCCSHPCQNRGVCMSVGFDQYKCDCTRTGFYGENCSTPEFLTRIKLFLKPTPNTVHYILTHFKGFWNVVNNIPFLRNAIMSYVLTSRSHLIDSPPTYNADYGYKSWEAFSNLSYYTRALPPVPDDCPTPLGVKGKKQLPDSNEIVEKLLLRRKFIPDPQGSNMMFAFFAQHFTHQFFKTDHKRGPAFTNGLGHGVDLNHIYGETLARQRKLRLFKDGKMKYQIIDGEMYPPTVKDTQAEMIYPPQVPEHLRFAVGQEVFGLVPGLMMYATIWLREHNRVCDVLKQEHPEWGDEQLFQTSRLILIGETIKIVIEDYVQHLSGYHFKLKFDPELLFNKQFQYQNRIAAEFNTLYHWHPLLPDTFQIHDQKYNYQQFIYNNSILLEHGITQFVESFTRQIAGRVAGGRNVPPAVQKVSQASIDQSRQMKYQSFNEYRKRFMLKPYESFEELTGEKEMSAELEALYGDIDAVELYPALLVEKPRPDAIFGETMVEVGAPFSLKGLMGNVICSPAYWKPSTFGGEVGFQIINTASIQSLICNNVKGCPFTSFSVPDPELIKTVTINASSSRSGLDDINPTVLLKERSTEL
Method: IR (infrared) spectra were done using FTIR (Thermo Fisher Nicolet IS5). […] Nuclear magnetic resonance (NMR) spectra were obtained using the Bruker Avance (300 MHz) spectrometer, micropipettes (Finnpipette, Finland), incubator (Nuve, Turkey), syringe filter 0.45 μm pore size (Microlab, China), microbroth plate (Greiner bio-one, North America), and LABiTec (Germany) for PT and aPTT tests.
The plate is washed with a buffer solution, and Ellman's reagent, which contains the substrate of acetylcholinesterase, is added to the well. […] The anti-inflammatory effect of the tested compounds was evaluated by calculating the percentage inhibition of PGE2 production.

[3] = tested on: platelet poor citrated plasma; experiment: Activated partial thromboplastin time (aPTT) test; type: biochemical, human; conditions: drug sample 3000 mg/L; for aPTT Average ± SD: average of three volunteers; for aPTT: equal volume with plasma, 5 min at 37°C
Method: as §1

COX1 [4] = biological target: T2, COX1 (Ovis aries, UniProt P05979); experiment: COX inhibitor screening assay kit (Cayman No. 560131), COX1; type: biochemical; parameters: purchased Cayman Chemical, USA 560131; conditions: for IC50: ELISA kit, calculated from percentage inhibition of PGE2 production, read-out: IC50 for COX1 enzyme (converted)
T2 sequence (P05979 25-600): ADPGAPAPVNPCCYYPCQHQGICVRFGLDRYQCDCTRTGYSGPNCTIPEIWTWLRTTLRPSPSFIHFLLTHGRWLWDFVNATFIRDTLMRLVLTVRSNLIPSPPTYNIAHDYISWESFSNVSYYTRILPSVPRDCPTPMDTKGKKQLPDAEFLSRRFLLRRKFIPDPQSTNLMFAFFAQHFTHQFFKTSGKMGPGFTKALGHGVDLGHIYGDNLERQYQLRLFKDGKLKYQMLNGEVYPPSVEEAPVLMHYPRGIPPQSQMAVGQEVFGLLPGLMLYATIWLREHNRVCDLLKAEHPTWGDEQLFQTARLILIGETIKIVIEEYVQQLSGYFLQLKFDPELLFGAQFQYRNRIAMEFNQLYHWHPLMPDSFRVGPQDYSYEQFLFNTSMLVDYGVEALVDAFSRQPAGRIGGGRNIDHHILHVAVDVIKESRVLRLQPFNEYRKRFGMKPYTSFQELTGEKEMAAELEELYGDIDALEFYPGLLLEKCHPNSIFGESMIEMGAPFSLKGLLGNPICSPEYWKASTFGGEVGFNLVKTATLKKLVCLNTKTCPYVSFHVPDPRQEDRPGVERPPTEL
Method: The instrumentation used in this project includes magnetic stirrer and heater (LM-1003), weighing balance (Adventurer-OHAVS-AR2140), and rotaevaporator (Heidolph-OB2000). IR (infrared) spectra were done using FTIR (Thermo Fisher Nicolet IS5). The UV-VIS spectra were done using the JENWAY-7315 spectrophotometer. Nuclear magnetic resonance (NMR) spectra were obtained using the Bruker Avance (300 MHz) spectrometer, micropipettes (Finnpipette, Finland), incubator (Nuve, Turkey), syringe filter 0.45 μm pore size (Microlab, China), microbroth plate (Greiner bio-one, North America), and LABiTec (Germany) for PT and aPTT tests. The Cyclooxygenase (COX) enzyme inhibition test was performed using COX inhibitor screening assay kit No. 560131 Cayman Chemical, USA and was read by Elisaplate Reader (BioRad, Japan).
COX1 and COX2 inhibition activities were determined using a COX inhibitor screening assay kit No. 560131 by Cayman Chemical, USA. The plate is washed with a buffer solution, and Ellman's reagent, which contains the substrate of acetylcholinesterase, is added to the well. The yellow product of this enzymatic reaction is determined spectrophotometrically in a microplate reader (BioRad, Japan) at 415 nm. […]. The anti-inflammatory effect of the tested compounds was evaluated by calculating the percentage inhibition of PGE2 production.

COX2 [5] = biological target: T1, COX2; conditions: previous published literature; read-out: inhibition activity for COX2 enzyme (converted); cited from earlier work
COX1 [6] = biological target: T2, COX1; conditions: previous published literature; cited from earlier work

Row | SMILES | PT Average ± SD [1] [s] | IC50 (COX2 [2]) [µM] | aPTT Average ± SD [3] [s] | aPTT Average ± SD ([3]; listed as naproxen-paracetamol ester) [s] | aPTT ([3]; volunteer 1) [s] | aPTT ([3]; volunteer 2) [s] | aPTT ([3]; volunteer 3) [s] | PT ([1]; volunteer 1) [s] | PT ([1]; volunteer 2) [s] | PT ([1]; volunteer 3) [s] | IC50 (COX1 [4]) [µM] | IC50 (COX2 [2]; ELISA kit, calculated from percentage inhibition of PGE2 production, read-out: IC50 for COX2 enzyme (converted)) [µM] | selectivity COX1 versus COX2 (COX1 [4]; comparison of the COX1 and COX2 IC50) | IC50 (COX2 [5]) [µM] | inhibition activity for COX1 enzyme (COX1 [6])
1 | CC(C)Cc1ccc(C(C)C(=O)O)cc1 (stereo not drawn) [Ibuprofen, reference compound] | 21.3 ± 3.3 | – | – | – | – | – | – | – | – | – | – | – | – | – | –
2 | COc1ccc2cc([C@H](C)C(=O)Oc3ccc(NC(C)=O)cc3)ccc2c1 [Nap-Para ester] | 21.8 ± 2.86 | 5.23 | 69.9 ± 8.79 | 69.9 ± 7.7 | 78.2 | 70.9 | 60.7 | 20.4 | 19.9 | 25.1 | 4.13 | – | – | – | –
3 | CC(=O)Nc1ccc(OC(=O)C(C)c2ccc(CC(C)C)cc2)cc1 (stereo not drawn) [Ibu-Para ester, 4-Acetamidophenyl 2-(4-isobutylphenyl) propanoate] | 23.8 ± 6.08 | – | 71 ± 0.9 | – | 71.2 | 71.8 | 70 | 19.8 | 20.8 | 30.8 | 1.56 | 6.5 | more selective towards COX1 | – | –
4 | COc1ccc2cc([C@H](C)C(=O)O)ccc2c1 [Naproxen] | – | – | – | – | – | – | – | – | – | – | – | – | – | 5.65 | –
5 | CC(=O)Nc1ccc(O)cc1 [Paracetamol, reference compound] | 21.7 ± 4.52 | – | 72 ± 8.7 | – | 73.1 | 62.8 | 80.2 | 18.5 | 19.4 | 27.1 | – | – | – | – | less IC50 inhibition activity
